Assays:
Format in all cases: in vivo
[1] = tested on: human ovarian cancer cell line SK-OV-3; assay: Mouse subcutaneous transplanted tumor of human ovarian cancer cell line SK-OV-3; details: SK-OV-3 tumor, once every two days for 20 days, cGAMP 5 mg/kg subcutaneous, oxaliplatin 2 mg/kg oral, platinum complexes 6 mg/kg oral; for Mean tumor weight (g): n = 10, mean ± SD; for Mean tumor inhibition rate (%): vs negative control group
Description: (§1) BALB/c ordinary mice, male, 18-20 g in weight, 6-8 weeks old, SPF grade, purchased from Shanghai SLAC Laboratory Animal Co., Ltd.[Laboratory Animal Quality Certificate Number: SCXK (Shanghai) 2007-0005].
(§2) Mice are orally administrated, and [cis-Pt(NH3)2(cGAMP)] and the tetravalent platinum complex cis-[Pt(cGAMP)(NH3)2(Cl)(OH)] are both set to be 6 mg/kg in one dose group.
(§3) Positive control: cGAMP, 5 mg/kg in dose (subcutaneous) oxaliplatin, 2 mg/kg in dose (oral)
(§4) Administration routes: control group: cGAMP, 5 mg/kg in dose (subcutaneous)
(§5) Oxaliplatin, 2 mg/kg in dose (oral);
(§6) Immune activator platinum complex, 6 mg/kg in dose (oral)
(§7) Administration volume: 100 μl/animal; number of times of administration: continuous administration for 20 days, once every two days.
(§8) Mouse colorectal cancer cell line CT26, mouse Lewis lung cancer cell line LL/2, human ovarian cancer cell line SK-OV-3, and human melanoma cell line A375, which all purchased from the Cell Bank of the Chinese Academy of Sciences.
(§9) The 5 groups are administered once every two days for 20 consecutive days. 20 days later, the mice are killed and the tumors are weighed. Tumor inhibition rate=[1−mean tumor weight of experimental group/mean tumor weight of group A)]×100%.
(§10) Data is expressed with x±s, and processed with SPSS10.0 software. The significance of the difference between tumor weights of all groups is compared by a one-way ANOVA test. The significance level a=0.05.

[2] = tested on: mouse colorectal cancer cell line CT26; assay: Subcutaneous transplanted tumor of mouse colorectal cancer cell CT26 in mice; details: for Mean tumor weight (g) / Mean tumor inhibition rate (%): BalB/C mouse, CT26 tumor, once every two days for 20 days, cGAMP 5 mg/kg subcutaneous, oxaliplatin 2 mg/kg oral, platinum complexes 6 mg/kg oral; for Mean tumor weight (g): n = 10, mean ± SD; for Mean tumor inhibition rate (%): vs negative control group; for Inhibition of the growth of subcutaneous transplanted tumors (result in words): summary statement for all four tumor models (Tables 1-4), 20 days after administration, tumor weights significantly lower than negative control (P<0.05, P<0.01)
Description: as §1, §2, §3, §4, §5, §6, §7, §8, §9, §10

[3] = tested on: mouse Lewis lung cancer cell line LL/2; assay: Subcutaneous transplanted tumor of mouse Lewis lung cancer cell line LL-2 in mice; details: C57 mouse, LL-2 tumor, once every two days for 20 days, cGAMP 5 mg/kg subcutaneous, oxaliplatin 2 mg/kg oral, platinum complexes 6 mg/kg oral; for Mean tumor weight (g): n = 10, mean ± SD; for Mean tumor inhibition rate (%): vs negative control group
Description: as §2, §3, §4, §5, §6, §7, §8, §9, §10

[4] = tested on: human melanoma cell line A375; assay: Mouse subcutaneous transplanted tumor of human melanoma cell line A375; details: once every two days for 20 days, cGAMP 5 mg/kg subcutaneous, oxaliplatin 2 mg/kg oral, platinum complexes 6 mg/kg oral; for Mean tumor weight (g): n = 10, mean ± SD; for Mean tumor inhibition rate (%): vs negative control group
Description: as §1, §2, §3, §4, §5, §6, §7, §8, §9, §10

| Compound | Mean tumor weight (g) [1] | Mean tumor inhibition rate (%) [1] [%] | Mean tumor weight (g) [2] | Mean tumor inhibition rate (%) [2] [%] | Inhibition of the growth of subcutaneous transplanted tumors (result in words) [2] | Mean tumor weight (g) [3] | Mean tumor inhibition rate (%) [3] [%] | Mean tumor weight (g) [4] | Mean tumor inhibition rate (%) [4] [%] |
| --- | --- | --- | --- | --- | --- | --- | --- | --- | --- |
| O=C1[O][Pt]2([NH][C@@H]3CCCC[C@H]3[NH]2)[O]C1=O [Oxaliplatin, oxaliplatin] | 0.989 ± 0.215 (g) | 62.6 | 0.963 ± 0.223 (g) | 57.3 | obviously inhibit the growth of tumors | 0.963 ± 0.223 (g) | 62.4 | 0.989 ± 0.215 (g) | 62.4 |
| Nc1nc2c(ncn2[C@@H]2O[C@@H]3COP(=O)(O)O[C@H]4[C@@H](O)[C@H](n5cnc6c(N)ncnc65)O[C@@H]4COP(=O)(O)O[C@@H]2[C@@H]3O)c(=O)[nH]1 [cGAMP, Cyclic [G(2′,5′)pA(3′,5′)p]] | 0.997 ± 0.212 (g) | 62.3 | 0.840 ± 0.218 (g) | 62.8 | obviously inhibit the growth of tumors | 0.980 ± 0.214 (g) | 56.6 | 0.969 ± 0.216 (g) | 63.0 |
| cis-[Pt(cGAMP)(NH3)2(Cl)(OH)] [cGAMP-tetravalent cisplatin] | 0.813 ± 0.226 (g) | 69.3 | 0.689 ± 0.224 (g) | 69.5 | obviously inhibit the growth of tumors | 0.784 ± 0.232 (g) | 69.4 | 0.794 ± 0.224 (g) | 69.8 |
| cis-[Pt(cGAMP)(NH3)2] [cGAMP-cisplatin] | 0.789 ± 0.218 (g) | 70.2 | 0.648 ± 0.216 (g) | 71.3 | obviously inhibit the growth of tumors | 0.758 ± 0.226 (g) | 70.4 | 0.786 ± 0.218 (g) | 70.1 |
